SMILES strings stand for the structures. Converted amounts (≈) assume the structure as drawn. Some results are limits rather than exact numbers.

The subject of one series is Cryptococcus neoformans. Put plainly: Antifungal activity against Cryptococcus neoformans H99 assessed as reduction in fungal growth incubated for 72 hrs by broth microdilution method. The format is functional.
The next series relates to Nakaseomyces glabratus. As to the kind of experiment: Antifungal activity against Candida glabrata 537 assessed as reduction in fungal growth incubated for 72 hrs by broth microdilution method. The format is functional. (In general: Broth dilution looks for growth in wells or tubes with falling amounts of substance.)
The next series has as its system Pichia kudriavzevii. As to the kind of experiment: Antifungal activity against Pichia kudriavzevii 4946 assessed as reduction in fungal growth incubated for 72 hrs by broth microdilution method. The class given is functional.
Another series concerns Candida tropicalis. As to the kind of experiment: Antifungal activity against Candida tropicalis 2718 assessed as reduction in fungal growth incubated for 72 hrs by broth microdilution method. The class given is functional.
A further series has as its system [Candida] auris. Put plainly: Antifungal activity against Candida auris D12 assessed as reduction in fungal growth incubated for 72 hrs by broth microdilution method. The format is functional. The note with it: Candidozyma auris.
Another series has as its system Candida parapsilosis. As to the kind of experiment: Antifungal activity against Candida parapsilosis ATCC 22019 assessed as reduction in fungal growth incubated for 72 hrs by broth microdilution method. The class given is functional. The conditions noted are these: Lodderomyces parapsilosis.
The next series concerns Candida albicans. As to the kind of experiment: Antifungal activity against Candida albicans SC5314 assessed as reduction in fungal growth incubated for 72 hrs by broth microdilution method. The format is functional.
Series [1] can be described thus: Metabolic stability in mouse liver microsomes assessed as intrinsic clearance. The class given is ADME, Microsome. The conditions noted are these: read-out: CLH. In general terms: Microsomes from liver hold many membrane-bound enzymes, among them those of drug oxidation.
Series [2] is described as follows: Metabolic stability in mouse liver microsomes assessed as half life. The class given is ADME, Microsome.
A short description of series [3]: Metabolic stability in mouse liver microsomes assessed as elimination rate constant. The class given is ADME, Microsome.

For orientation: MIC means the lowest concentration that inhibits growth of the organism. Take `CCOCCNC(=O)c1ccc(-n2nc(-c3ccccc3O)nc2-c2ccccc2O)cc1`: in the series on Cryptococcus neoformans, the MIC stood at 1 µg/mL (≈ 2.25 µM).

As to `O=C(NCc1cccnc1)c1ccc(-n2nc(-c3ccccc3O)nc2-c2ccccc2O)cc1`, the MIC with Cryptococcus neoformans is 8 µg/mL (≈ 17.3 µM).

Consider `O=C1C[C@H](NC(=O)c2ccc(-n3nc(-c4ccccc4O)nc3-c3ccccc3O)cc2)CO1`, for which the MIC with Cryptococcus neoformans was > 64 µg/mL.

Turning to `O=C(NC1CS(=O)(=O)C1)c1ccc(-n2nc(-c3ccccc3O)nc2-c2ccccc2O)cc1`, the minimum inhibitory concentration (MIC) with Cryptococcus neoformans amounted to 1 µg/mL (≈ 2.1 µM).

Consider `O=C(NCCc1ccccc1)c1ccc(-n2nc(-c3ccccc3O)nc2-c2ccccc2O)cc1`, for which, in the series with Cryptococcus neoformans, the MIC worked out at 8 µg/mL (≈ 16.8 µM).

With `CN1CCN(CCNC(=O)c2ccc(-n3nc(-c4ccccc4O)nc3-c3ccccc3O)cc2)CC1`, the MIC with Cryptococcus neoformans came out at 1 µg/mL (≈ 2.01 µM).

On to `O=C(NCCN1CCOCC1)c1cccc(-n2nc(-c3ccccc3O)nc2-c2ccccc2O)c1`, for which the MIC in the series with Cryptococcus neoformans was determined as 1 µg/mL (≈ 2.06 µM).

As to `O=C(NCCN1CCOCC1)c1ccc(-n2nc(-c3ccccc3O)nc2-c2ccccc2O)cc1`, the MIC is < 0.125 µg/mL with Nakaseomyces glabratus; 0.5 µg/mL (≈ 1.03 µM) in the series with Cryptococcus neoformans; 8 µg/mL (≈ 16.5 µM) in the series on Pichia kudriavzevii; 4 µg/mL (≈ 8.24 µM) in the series on Candida tropicalis; > 64 µg/mL in series [Candida] auris; 64 µg/mL (≈ 132 µM) in the series on Candida parapsilosis. Moreover, the minimal inhibitory concentration (MIC) in the series on Candida albicans turned out to be 32 µg/mL (≈ 65.9 µM).

As for `CN(C)CCNC(=O)c1ccc(-n2nc(-c3ccccc3O)nc2-c2ccccc2O)cc1`, the MIC with Cryptococcus neoformans is 4 µg/mL (≈ 9.02 µM).

In the case of `O=C(Nc1ccccc1)c1ccc(-n2nc(-c3ccccc3O)nc2-c2ccccc2O)cc1`, the MIC with Cryptococcus neoformans stood at 4 µg/mL (≈ 8.92 µM).

Consider `O=C(N[C@H]1CCOC1)c1ccc(-n2nc(-c3ccccc3O)nc2-c2ccccc2O)cc1`, for which the MIC in the series on Cryptococcus neoformans worked out at 4 µg/mL (≈ 9.04 µM).

`O=C(NCCN1CCC(F)(F)CC1)c1ccc(-n2nc(-c3ccccc3O)nc2-c2ccccc2O)cc1`: the MIC in the series on Cryptococcus neoformans was 1 µg/mL (≈ 1.92 µM).

In the case of `O=C(NCC(=O)N1CCOCC1)c1ccc(-n2nc(-c3ccccc3O)nc2-c2ccccc2O)cc1`, the minimal inhibitory concentration (MIC) in the series on Cryptococcus neoformans was 1 µg/mL (≈ 2 µM).

Regarding `O=C(NCCO)c1ccc(-n2nc(-c3ccccc3O)nc2-c2ccccc2O)cc1`, in the series with Cryptococcus neoformans, the MIC worked out at 4 µg/mL (≈ 9.61 µM).

On to `O=C(NCCNc1ncccn1)c1ccc(-n2nc(-c3ccccc3O)nc2-c2ccccc2O)cc1`, for which the minimal inhibitory concentration (MIC) was 1 µg/mL (≈ 2.03 µM) in the series with Nakaseomyces glabratus; 0.5 µg/mL (≈ 1.01 µM) in the series with Cryptococcus neoformans; 16 µg/mL (≈ 32.4 µM) in the series with Pichia kudriavzevii; 8 µg/mL (≈ 16.2 µM) with Candida tropicalis; > 64 µg/mL in series [Candida] auris; > 64 µg/mL in the series on Candida parapsilosis. The minimum inhibitory concentration (MIC) with Candida albicans was 32 µg/mL (≈ 64.8 µM).

For `O=C(NC1CCS(=O)(=O)CC1)c1ccc(-n2nc(-c3ccccc3O)nc2-c2ccccc2O)cc1`, the MIC in the series on Cryptococcus neoformans worked out at 4 µg/mL (≈ 7.93 µM).

For `O=C(c1ccc(-n2nc(-c3ccccc3O)nc2-c2ccccc2O)cc1)N1CCOCC1`, the MIC in the series on Cryptococcus neoformans was 4 µg/mL (≈ 9.04 µM).

Regarding `CN1CCCC(CNC(=O)c2ccc(-n3nc(-c4ccccc4O)nc3-c3ccccc3O)cc2)C1` (configuration not stated), the minimal inhibitory concentration (MIC) in the series with Nakaseomyces glabratus is < 0.125 µg/mL; in the series with Cryptococcus neoformans it was 0.25 µg/mL (≈ 0.517 µM); in the series on Pichia kudriavzevii, 16 µg/mL (≈ 33.1 µM); with Candida tropicalis, 32 µg/mL (≈ 66.2 µM); in series [Candida] auris it was > 64 µg/mL; in the series with Candida parapsilosis, 64 µg/mL (≈ 132 µM). Moreover, the MIC in the series on Candida albicans was found to be 32 µg/mL (≈ 66.2 µM).

Turning to `CC(C)(O)CNC(=O)c1ccc(-n2nc(-c3ccccc3O)nc2-c2ccccc2O)cc1`, the MIC in the series on Cryptococcus neoformans came to 2 µg/mL (≈ 4.5 µM).

`O=C1C[C@@H](NC(=O)c2ccc(-n3nc(-c4ccccc4O)nc3-c3ccccc3O)cc2)CO1`: in the series with Cryptococcus neoformans, the minimal inhibitory concentration (MIC) was > 64 µg/mL.

For the compound `CN1CCOC(CNC(=O)c2ccc(-n3nc(-c4ccccc4O)nc3-c3ccccc3O)cc2)C1` (configuration not stated), the MIC with Nakaseomyces glabratus was < 0.125 µg/mL; in the series with Cryptococcus neoformans, 0.5 µg/mL (≈ 1.03 µM); in the series on Pichia kudriavzevii, 4 µg/mL (≈ 8.24 µM); in the series with Candida tropicalis it was 1 µg/mL (≈ 2.06 µM); in [Candida] auris it was > 64 µg/mL; with Candida parapsilosis, 32 µg/mL (≈ 65.9 µM). Besides, the minimum inhibitory concentration (MIC) in the series on Candida albicans came to 2 µg/mL (≈ 4.12 µM).

In the case of `O=C(NNc1ccccc1)c1ccc(-n2nc(-c3ccccc3O)nc2-c2ccccc2O)cc1`, in the series with Cryptococcus neoformans, the MIC was 2 µg/mL (≈ 4.32 µM).

As for `O=C(NCCOc1ccccn1)c1ccc(-n2nc(-c3ccccc3O)nc2-c2ccccc2O)cc1`, the MIC in the series on Cryptococcus neoformans stood at 4 µg/mL (≈ 8.1 µM).

As to `O=C(NCc1ccco1)c1ccc(-n2nc(-c3ccccc3O)nc2-c2ccccc2O)cc1`, the MIC with Cryptococcus neoformans is 4 µg/mL (≈ 8.84 µM).

With `O=C(NCc1ncccn1)c1ccc(-n2nc(-c3ccccc3O)nc2-c2ccccc2O)cc1`, in the series on Cryptococcus neoformans, the MIC is 4 µg/mL (≈ 8.61 µM).

In the case of `O=C(NCCCO)c1ccc(-n2nc(-c3ccccc3O)nc2-c2ccccc2O)cc1`, in the series with Cryptococcus neoformans, the MIC was found to be 2 µg/mL (≈ 4.65 µM).

Take `Cc1nccn1CCCNC(=O)c1ccc(-n2nc(-c3ccccc3O)nc2-c2ccccc2O)cc1`: the MIC in the series on Cryptococcus neoformans stood at 8 µg/mL (≈ 16.2 µM).

For `CCNC(=O)c1ccc(-n2nc(-c3ccccc3O)nc2-c2ccccc2O)cc1`, the MIC in the series with Cryptococcus neoformans is 1 µg/mL (≈ 2.5 µM).

With `COCCNC(=O)c1ccc(-n2nc(-c3ccccc3O)nc2-c2ccccc2O)cc1`, the MIC in the series with Nakaseomyces glabratus is < 0.125 µg/mL; in the series on Cryptococcus neoformans, 0.25 µg/mL (≈ 0.581 µM); in the series on Pichia kudriavzevii, 1 µg/mL (≈ 2.32 µM); with Candida tropicalis, 4 µg/mL (≈ 9.29 µM); in series [Candida] auris, > 64 µg/mL; in the series with Candida parapsilosis, > 64 µg/mL. For the same compound, in the series on Candida albicans, the MIC was determined as 8 µg/mL (≈ 18.6 µM).

As usually defined, the half-life is the time in which the quantity being followed falls by half. On to `Cc1ncc2n1-c1ccc(Cl)cc1C(c1ccccc1F)=NC2` [MIDAZOLAM], for which the microsomal CLint in [1] amounted to 742 µL/min/mg. Besides, the half-life in [2] was found to be 4.67 min. For the same compound, the k el in [3] was 0.00247 s⁻¹.

The values above are taken from ChEMBL document CHEMBL5528016, “Design, synthesis and evaluation of novel deferasirox derivatives with high antifungal potency in vitro and in vivo” (Eur J Med Chem, 2024).
